{"source": "patent US4657897A", "about": "“N^6 -substituted adenosines for treating pain” (Warner-Lambert Company, priority 1985, dated 1987)", "key": {"[1]": {"assay": "Mouse Activity and Screen Test (MAST), inhibition of locomotion (LI)", "format": "in vivo, mouse (Swiss-Webster, male)", "conditions": "one hour data", "protocol": "(§1) Treatments are administered intraperitoneally one hour prior to testing. […] Compounds are dissolved or suspended in 0.2% Methocel. Control animals are injected with Methocel.\nImmediately following the screen test, the final phase of testing is initiated by placing each group of three mice in one actophotometer (Life Sciences, 22, 1067-1076, 1978). The actophotometer consists of a cylindrical chamber whose center is occupied by another cylinder which contains the illumination for six photocells located on the perimeter of the chamber. Six light-beam interruptions equal one count. Locomotor activity is recorded by computer at ten minute intervals for 60 minutes.\n(§2) The compounds are identified in the Examples."}, "[2]": {"assay": "Mouse Activity and Screen Test (MAST), screen test failure (ST)", "format": "in vivo, mouse (Swiss-Webster, male)", "conditions": "Mus musculus, ip, 1 h, read-out: MAST ST LAD", "protocol": "as §1, §2"}, "[3]": {"assay": "Antihypertensive evaluation (AHP3), aortic blood pressure and heart rate in conscious rats", "format": "in vivo, rat", "protocol": "This test procedure is described in the following paragraphs.\nThe continuous monitoring of pulsatile blood pressure (BP) from unrestrained conscious rats surgically equipped witth polyethylene cannulas was accomplished by means of a computer assisted data capture scheme (CADCS). The basic elements of the methodology are the cannulation procedure and the CADCS.\nRats were anesthetized with Telazol (1:1 tiletamine HCl and zolazepam HCl); 20-40 mg/kg IM and the descending aorta exposed via a midline incision. Cannulas fabricated from polyethylene tubing were inserted into the aorta via an undersized puncture hole below the renal arteries. The puncture hole was made by a 23 G disposable needle with a section of the aorta clamped off above and below the puncture site. The cannulas, consisting of a PE100 (0.86 mm ID) body and a PE50 (0.58 mm ID) tip, were attached to a trocar, inserted through the psoas muscle, and passed subcutaneously along the midline of the back and externalized between the ears. The cannulas were anchored to the psoas muscle and between the scalulae (3-0 green braided suture). The midline incision was closed in two steps (muscle first, skin second) using continuous over-and over sutures (4-0 chronic). Each rat was then given penicillin 30,000 units subcutaneously (Penicillin G Procaine Sterile Suspension).\nThe rats were fitted with a harness-spring-swivel assembly designed to protect the cannula and to provide the rat relative freedom of movement. The harnesses were fabricated from nylon hook and loop tape cemented to a metal plate to which spring wires (18-8 stainless steel), were attached to brass swivels. Each polyethylene cannula was channeled through a spring and connected through a swivel to a pressure transducer (Model P23Gb; Statham Instruments; Hato Rey, Puerto Rico) and an infusion pump (Sage model 234-7; Orion Research, Cambridge, MA) by means of PE100 tubing. While on test, each rat received a continuous slow infusion of heparinized saline solution (approximately […] or 40 units of heparin per 24 hour period) to prevent clot formation. Additional \"flushes\" of the cannula with heparinized saline were carried out when the aortic pulse pressure (systolic minus diastolic) was less than 25 mm Hg.\nThe pulsatile blood pressure and heart rate of each of 32 rats was monitored every minute by means of two in-laboratory microcomputers communicating directly with a data concentrator computer. The data were first stored on the data concentrator disk and then transferred to a magnetic tape for analysis and report generation by the main research computer. The overall scheme involved modulating the primary signal from the pressure transducer, generating the primary data set of the one-minute values for systolic, diastolic, and mean blood pressures and heart rate by the in-lab microcomputer and the storage, analysis, and report generation by the main reserach computer.\nThe transducers were connected to analog signal conditioning modules. The modules provided a regulated excitation voltage for the transducers, amplification as required to interface the microprocessors and an active low pass filter to compensate for the pressure wave form distortion produced by the flexible, fluid filled, narrow cannula. The distortion was 22-26 Hz and this provided a reliable estimate of both systolic and diastolic blood pressure.\nThe microcomputers (one for each of two groups of 16 rats) were connected to the input components through the module interface units, an analog-to-digital converter for the pressure wave form signal and the digital inputs for the dose and event marker switches. The microcomputer controlled the sequential acquisition of data from the modular interface units through an internal synchronous time-of-day clock/time base generator. Utilizing the time base generator as a reference, the blood pressure values and the marker switch status for each of the 32 stations were sampled every ten msec. […]"}, "rat heart": {"system": "rat heart", "assay": "Coronary blood flow (PCS2A), isolated perfused rat heart", "parameters": "species or system rat (male)", "conditions": "read-out: effect on heart rate (HR)", "protocol": "Male rats (400-600 gms) are pretreated with Na heparin 2000 units and anesthetized with Na pentobarbital (50 mg/kg) administered intraperitoneally. Once anesthetized, the rat heart is rapidly excised, the ascending aorta fitted to the aortic perfusion cannula, and secured with a ligature. The coronary arteries are perfused initially at a rate of about 15 ml/min for two to three minutes, afterwhich they are perfused at constant pressure of 70 mm Hg and temperature of 37° C. The electrocardiogram (ECG) is recorded using two platinum electrodes positioned at the base and apex of the left ventricle. A second heart is excised, cannulated, and perfused by the same method outlined above. Both hearts are tested in parallel. The standard physiological salt solution (PSS) is a modified Krebs-Hanseleit bicarbonate buffer of the following composition in mM concentration: NaCl, 127; NaHCO3, 25; dextrose, 5.5; Na Pyruvate, 2.0; KCl, 4.7; MgSO4, 1.1; KH 2PO4, 1.2; CaCl2.2H2 O, 2.5; CaNa2 EDTA, 0.05.\nA 30-minute stabilization period is observed before starting the test protocol.\nThe microprocessor control system is a servo mechanism which permits coronary perfusion pressure (CPP) and drug concentration to be maintained constant independent of changes in coronary flow. The level at which CPP and drug concentration are maintained can be changed by commands communicated through the microprocessor keyboard. Dose-response curves are carried out by perfusing concentrated drug solution (DC) at rates proportional to total coronary flow (CFT). Drug concentrations are increased by proportionate increases in the rate of DC infusion over CFT via the microprocessor keyboard. The proportional flow rates for DC:CFT is about 0.0002:1 at the low end and 0.02:1 at the high end of the dose-response curve. Dose-response curves encompassing at least two log doses are carried out by preparing two DCs with a concentration difference of 1:100. Following the first dose range of two log doses, the DC are switched, proportional pumping rate adjusted, and the dose-responsecurve continued for another two log doses. The standard dose-response curve is carried out in one-half log dose increments starting at a subthreshold dose and ending at a dose which produces near maximal response in activity. Standard reference compounds are tested over the range of 10^-9 to 10^-6 M.\nMeasurements are for heart rate (HR) and coronary flow (CF). Units are: HR, beats/minute (bpm) and CF, milliliters/minute (ml/min). HR is calculated from the ECG strip chart recording and CF is calculated by recording analog outputs from pumps 1 and 2. Outputs from pump #1=CFT and the output from pump #2=CF for heart B (CFB). CF for heart A (CFA) is calculated (CFT -CFB =CFA)."}}}
{"smiles": "OC[C@H]1O[C@@H](n2cnc3c(NCC(c4ccccc4)c4ccccc4)ncnc32)[C@H](O)[C@@H]1O", "note": "[Example 1, N^6-(2,2-Diphenylethyl)adenosine]", "values": [{"measurement": "Inhibition of mouse locomotor activity", "setting": "[1]; 10 mg/kg intraperitoneal", "value": 92, "unit": "%"}, {"measurement": "Inhibition of mouse locomotor activity", "setting": "[1]; 30 mg/kg intraperitoneal", "value": 93, "unit": "%"}, {"measurement": "Inhibition of mouse locomotor activity", "setting": "[1]; 100 mg/kg intraperitoneal", "value": 94, "unit": "%"}, {"measurement": "minimal effective dose", "setting": "[2]", "value": "> 100", "unit": "mg/kg"}, {"measurement": "change in MAP (decrease)", "setting": "[3]; 1 mg/kg", "value": 16, "unit": "%"}, {"measurement": "change in heart rate (HR increase)", "setting": "[3]; 1 mg/kg", "value": "< 20", "unit": "%"}, {"measurement": "change in MAP (decrease)", "setting": "[3]; 3 mg/kg", "value": 20, "unit": "%"}, {"measurement": "change in heart rate (HR increase)", "setting": "[3]; 3 mg/kg", "value": "< 20", "unit": "%"}, {"measurement": "change in MAP (decrease)", "setting": "[3]; 10 mg/kg", "value": 20, "unit": "%"}, {"measurement": "change in heart rate (HR increase)", "setting": "[3]; 10 mg/kg", "value": "< 20", "unit": "%"}, {"measurement": "change in MAP (decrease)", "setting": "[3]; 30 mg/kg", "value": 35, "unit": "%"}, {"measurement": "change in heart rate (HR increase)", "setting": "[3]; 30 mg/kg", "value": "< 20", "unit": "%"}, {"measurement": "activation at 0.001 µM", "setting": "rat heart", "value": 1, "unit": "%"}, {"measurement": "activation at 0.003 µM", "setting": "rat heart", "value": 3, "unit": "%"}, {"measurement": "activation at 0.01 µM", "setting": "rat heart", "value": -1, "unit": "%"}, {"measurement": "activation at 0.1 µM", "setting": "rat heart", "value": -13, "unit": "%"}, {"measurement": "activation at 1 µM", "setting": "rat heart", "value": -47, "unit": "%"}]}
